PubChem BioAssay AID328 (DTP/NCI, 2004)
Several values for one entry are separate records, joined by “and”; a condition that tells them apart may be missing. Equal entries are not always repeated. Toxic doses and inconclusive results are not listed.

System: BDF1 mice, P388 leukemia ip, median survival T/C
Assay: NCI In Vivo Anticancer Drug Screen. Data for tumor model P388 Leukemia (intraperitoneal) in B6D2F1 (BDF1) mice
Conditions: endpoint: median survival time, higher = longer survival
Procedure, shortened: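 Steps: implant the tumour, treat one group with compound and another with vehicle, record survival, then divide treated by control.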

[1] = dose: 25.0 mg/kg/injection, schedule: Q01DX009 (ip), vehicle: saline
[2] = dose: 100.0 mg/kg/injection, schedule: Q01DX009 (ip), vehicle: saline with Tween-80
[3] = dose: 12.5 mg/kg/injection, schedule: Q01DX009 (ip), vehicle: saline with Tween-80
[4] = dose: 50.0 mg/kg/injection, schedule: Q01DX009 (ip), vehicle: saline with Tween-80
[5] = dose: 200.0 mg/kg/injection, schedule: Q01DX009 (ip), vehicle: saline with Tween-80
[6] = dose: 400.0 mg/kg/injection, schedule: Q01DX009 (ip), vehicle: saline with Tween-80
[7] = dose: 25.0 mg/kg/injection, schedule: Q01DX009 (ip), vehicle: saline with Tween-80
[8] = dose: 50.0 mg/kg/injection, schedule: Q04DX003 (ip), vehicle: saline with Tween-80
[9] = dose: 25.0 mg/kg/injection, schedule: Q04DX003 (ip), vehicle: Klucel (hydroxypropylcellulose) (HPC)
[10] = dose: 50.0 mg/kg/injection, schedule: Q04DX003 (ip), vehicle: Klucel (hydroxypropylcellulose) (HPC)
[11] = dose: 100.0 mg/kg/injection, schedule: Q01DX001 (ip), vehicle: saline with Tween-80
[12] = dose: 200.0 mg/kg/injection, schedule: Q01DX001 (ip), vehicle: saline with Tween-80
[13] = dose: 400.0 mg/kg/injection, schedule: Q01DX001 (ip), vehicle: saline with Tween-80
[14] = dose: 100.0 mg/kg/injection, schedule: Q04DX003 (ip), vehicle: saline with Tween-80
[15] = dose: 200.0 mg/kg/injection, schedule: Q04DX003 (ip), vehicle: saline with Tween-80
[16] = dose: 400.0 mg/kg/injection, schedule: Q04DX003 (ip), vehicle: saline with Tween-80
[17] = dose: 100.0 mg/kg/injection, schedule: Q04DX003 (ip), vehicle: Klucel (hydroxypropylcellulose) (HPC)
[18] = dose: 200.0 mg/kg/injection, schedule: Q04DX003 (ip), vehicle: Klucel (hydroxypropylcellulose) (HPC)
[19] = dose: 400.0 mg/kg/injection, schedule: Q04DX003 (ip), vehicle: Klucel (hydroxypropylcellulose) (HPC)

CC(C)C[C@H](O)C(=O)O
T/C [1]: 95 % of control
T/C (dose: 44.0 mg/kg/injection, schedule: Q01DX009 (ip), vehicle: saline): 109 % of control
T/C (dose: 66.0 mg/kg/injection, schedule: Q01DX009 (ip), vehicle: saline): 109 % of control
T/C (dose: 100.0 mg/kg/injection, schedule: Q01DX009 (ip), vehicle: saline): 95 % of control and 120 % of control
T/C (dose: 150.0 mg/kg/injection, schedule: Q01DX009 (ip), vehicle: saline): 118 % of control
T/C (dose: 200.0 mg/kg/injection, schedule: Q01DX009 (ip), vehicle: saline): 95 % of control

CC1OCC(Br)([N+](=O)[O-])CO1 (centres undefined)
T/C (dose: 12.5 mg/kg/injection, schedule: Q04DX003 (ip), vehicle: saline): 99 % of control
T/C (dose: 25.0 mg/kg/injection, schedule: Q04DX003 (ip), vehicle: saline): 107 % of control

C=C[C@@](C)(O)CC/C=C(/C)CCC=C(C)C
T/C [2]: 109 % of control

COc1cc(C=Nc2ccc(C(=O)O)cc2)ccc1N(CCCl)CCCl
T/C (dose: 1.3 mg/kg/injection, schedule: Q04DX003 (ip), vehicle: saline with Tween-80): 115 % of control
T/C (dose: 2.0 mg/kg/injection, schedule: Q04DX003 (ip), vehicle: saline with Tween-80): 111 % of control
T/C (dose: 3.0 mg/kg/injection, schedule: Q04DX003 (ip), vehicle: saline with Tween-80): 162 % of control
T/C (dose: 7.0 mg/kg/injection, schedule: Q04DX003 (ip), vehicle: saline with Tween-80): 150 % of control and 158 % of control
T/C (dose: 11.0 mg/kg/injection, schedule: Q04DX003 (ip), vehicle: saline with Tween-80): 170 % of control
T/C [3]: 195 % of control
T/C (dose: 16.0 mg/kg/injection, schedule: Q04DX003 (ip), vehicle: saline with Tween-80): 187 % of control
T/C (dose: 16.5 mg/kg/injection, schedule: Q04DX003 (ip), vehicle: saline with Tween-80): 169 % of control
T/C (dose: 25.0 mg/kg/injection, schedule: Q04DX003 (ip), vehicle: saline with Tween-80): 196 % of control
T/C (dose: 37.5 mg/kg/injection, schedule: Q04DX003 (ip), vehicle: saline with Tween-80): 107 % of control

O=C(/C=C/c1c(Cl)cccc1Cl)c1ccccc1
T/C (dose: 50.0 mg/kg/injection, schedule: Q01DX009 (ip), vehicle: Klucel (hydroxypropylcellulose) (HPC)): 97 % of control
T/C (dose: 100.0 mg/kg/injection, schedule: Q01DX009 (ip), vehicle: Klucel (hydroxypropylcellulose) (HPC)): 105 % of control
T/C (dose: 200.0 mg/kg/injection, schedule: Q01DX009 (ip), vehicle: Klucel (hydroxypropylcellulose) (HPC)): 97 % of control

Cc1ccc(S(=O)(=O)Oc2ccc(-c3ccc(Br)cc3)cc2)cc1
T/C [4]: 96 % of control
T/C [2]: 96 % of control
T/C [5]: 101 % of control
T/C [6]: 92 % of control

FC(F)(F)c1cccc(-c2nc3nc(Cl)c(Cl)nc3[nH]2)c1
T/C [7]: 99 % of control
T/C [4]: 94 % of control
T/C [8]: 108 % of control
T/C [2]: 103 % of control

Cc1c(C)c(CO)c(C)c(C)c1CO
T/C (dose: 8.0 mg/kg/injection, schedule: Q01DX009 (ip), vehicle: Klucel (hydroxypropylcellulose) (HPC)): 96 % of control
T/C (dose: 12.0 mg/kg/injection, schedule: Q01DX009 (ip), vehicle: Klucel (hydroxypropylcellulose) (HPC)): 89 % of control
T/C (dose: 12.0 mg/kg/injection, schedule: Q04DX003 (ip), vehicle: Klucel (hydroxypropylcellulose) (HPC)): 104 % of control
T/C (dose: 18.0 mg/kg/injection, schedule: Q01DX009 (ip), vehicle: Klucel (hydroxypropylcellulose) (HPC)): 96 % of control
T/C [9]: 95 % of control
T/C [10]: 104 % of control

O=C(C/C(=N\C(=S)Nc1cc(C(F)(F)F)ccc1Cl)NO)N1CCCC1
T/C [4]: 110 % of control

CC(=O)NC(N)=O
T/C [11]: 100 % of control
T/C [12]: 100 % of control
T/C [13]: 109 % of control

CCCCCCCSc1ncnc2nc[nH]c12
T/C [2]: 100 % of control
T/C [14]: 86 % of control
T/C [5]: 86 % of control
T/C [15]: 95 % of control
T/C [6]: 109 % of control
T/C [16]: 100 % of control

NC(=S)N/N=C/c1ccc2c(c1)OCO2
T/C [8]: 95 % of control
T/C [14]: 100 % of control

O=C(Nc1ccc(Cl)cc1)O/N=C/c1ccccn1
T/C [11]: 95 % of control
T/C [12]: 104 % of control
T/C [13]: 90 % of control

CCOC(=O)c1cn(COC)c2nc(SC)nc(NC(C)=O)c2c1=O
T/C [11]: 105 % of control
T/C [12]: 90 % of control
T/C [13]: 90 % of control

CCCCN(C(=O)C(F)(F)F)C(C)(C)C(SSSC(c1cccs1)C(C)(C)N(CCCC)C(=O)C(F)(F)F)c1cccs1 (centres undefined)
T/C [14]: 109 % of control

CCCCC(C(C)=O)C(C)C (centres undefined)
T/C (dose: 75.0 mg/kg/injection, schedule: Q01DX009 (ip), vehicle: Klucel (hydroxypropylcellulose) (HPC)): 90 % of control
T/C [17]: 111 % of control
T/C (dose: 150.0 mg/kg/injection, schedule: Q01DX009 (ip), vehicle: Klucel (hydroxypropylcellulose) (HPC)): 90 % of control
T/C [18]: 96 % of control
T/C (dose: 300.0 mg/kg/injection, schedule: Q01DX009 (ip), vehicle: Klucel (hydroxypropylcellulose) (HPC)): 95 % of control
T/C [19]: 96 % of control

O=C(O)C1CC2C=CC1C2 (centres undefined)
T/C [3]: 118 % of control
T/C [7]: 113 % of control
T/C [4]: 109 % of control
T/C [2]: 110 % of control and 100 % of control
T/C [5]: 90 % of control
T/C [6]: 86 % of control

Cc1nn(CCO)c(C)c1N=[N+]([O-])c1c(C)nn(CCO)c1C
T/C (dose: 15.0 mg/kg/injection, schedule: Q01DX009 (ip), vehicle: saline with Tween-80): 114 % of control

CCOC(=O)C(OCC)P(=O)(OCC)OCC (centres undefined)
T/C [9]: 93 % of control
T/C [10]: 97 % of control
T/C [17]: 91 % of control
T/C [18]: 90 % of control
T/C [19]: 93 % of control

CC(C)=CCCC(C)C/C=N\O (centres undefined)
T/C [3]: 107 % of control
T/C [7]: 107 % of control
T/C [4]: 96 % of control
T/C [14]: 109 % of control
T/C [15]: 113 % of control
T/C [16]: 109 % of control

C=C(C)C(O)C(O)c1cc2ccc(=O)oc2cc1OC (centres undefined)
T/C (dose: 8.75 mg/kg/injection, schedule: Q01DX009 (ip), vehicle: carboxymethylcellulose (CMC)): 96 % of control
T/C (dose: 17.5 mg/kg/injection, schedule: Q01DX009 (ip), vehicle: carboxymethylcellulose (CMC)): 88 % of control

OCC1OC(n2cnc3cncnc32)C(O)C1O (centres undefined)
T/C (dose: 0.78 mg/kg/injection, schedule: Q01DX009 (ip), vehicle: saline): 97 % of control
T/C (dose: 1.56 mg/kg/injection, schedule: Q01DX009 (ip), vehicle: saline): 113 % of control and 115 % of control
T/C (dose: 3.13 mg/kg/injection, schedule: Q04DX003 (ip), vehicle: saline): 100 % of control
T/C (dose: 6.25 mg/kg/injection, schedule: Q04DX003 (ip), vehicle: saline): 116 % of control
T/C [1]: 100 % of control

CC(Cl)CNC(=O)Nc1cccc2c1CCCC2 (centres undefined)
T/C [11]: 100 % of control
T/C [12]: 109 % of control
T/C [13]: 90 % of control

COc1ccc(C=Nc2c(N)[nH]c(=S)[nH]c2=O)cc1
T/C (dose: 100.0 mg/kg/injection, schedule: Q04DX002 (ip), vehicle: saline with Tween-80): 115 % of control and 117 % of control
T/C (dose: 200.0 mg/kg/injection, schedule: Q04DX002 (ip), vehicle: saline with Tween-80): 105 % of control and 117 % of control

NC(=O)C12CCCCC1CCC(=O)C2 (centres undefined)
T/C (dose: 25.0 mg/kg/injection, schedule: Q04DX003 (ip), vehicle: saline sonified): 105 % of control
T/C (dose: 50.0 mg/kg/injection, schedule: Q04DX003 (ip), vehicle: saline sonified): 100 % of control
T/C (dose: 100.0 mg/kg/injection, schedule: Q04DX003 (ip), vehicle: saline sonified): 95 % of control

COc1cccc(CN2CCNCC2)c1
T/C (dose: 6.25 mg/kg/injection, schedule: Q04DX003 (ip), vehicle: water): 87 % of control
T/C (dose: 12.5 mg/kg/injection, schedule: Q04DX003 (ip), vehicle: water): 89 % of control
T/C (dose: 25.0 mg/kg/injection, schedule: Q04DX003 (ip), vehicle: water): 93 % of control
T/C (dose: 50.0 mg/kg/injection, schedule: Q04DX003 (ip), vehicle: water): 101 % of control
T/C (dose: 100.0 mg/kg/injection, schedule: Q04DX003 (ip), vehicle: water): 94 % of control
